# How the values were obtained:
# [1] = Aqueous solubility (buffer vs acetonitrile/water, 24 h shaking, LC-UV); format: physicochemical; settings: kinetic from dmso stock, 2.5% DMSO, ">" = more than 90% dissolved
# Procedure: The aqueous solubility of the compounds of the invention is determined by comparing the amount dissolved in buffer to the amount in an acetonitrile/water (1/1) solution. Starting from a 10 mM DMSO stock solution aliquots are diluted with acetonitrile/water (1/1) or buffer resp. After 24 h of shaking, the solutions are filtrated and analyzed by LC-UV. The amount dissolved in buffer is compared to the amount in the acetonitrile solution.
# Solubility is usually being measured from 0.001 to 0.125 mg/ml at a DMSO concentration of 2.5%. If more than 90% of the compound is dissolved in buffer, the value is marked with “>”.
# [2] = target: T1, AMPK complex 1 (containing alpha1beta1gamma1) (Homo sapiens, UniProt Q13131+Q9Y478); assay: In vitro AMPK activation assay (ADP-Glo Kinase Assay); format: biochemical; settings: 30 μM ATP, 1 μM peptide, 60 min, room temperature
# T1 construct: GST (Glutathion S transferase) (N); made in house; host or cells: baculovirus; virus made in Sf9, expression in High Five cells
# Description: Activated AMPK complex 1 (containing alpha1beta1gamma1) was obtained from baculovirus expression system. The gene encoding AMPK alpha1 was cloned into the pACG2T vector (BD Biosciences) to obtain a N-terminal Glutathion S transferase (GST)-fusion protein. The genes encoding AMPK beta 1 and gamma1 were cloned into the p2Bac dual multiple cloning site vector (Invitrogen) with beta1 under the control of the p10 promoter and gamma1 under the control of the PH promoter. The transfer vectors containing AMPK were co-transfected individually with AcPNV BacMagic-3 DNA (EMD Millipore) in Sf9 cells and the recombinant baculoviruses were harvested after 5 days, followed by 3 rounds of amplification of the virus stock in Sf9 cells. AMPK (alpha1beta1gamma1) was expressed in High Five 5 cells by co-infection of recombinant alpha1 virus and recombinant beta1/gamma1 virus for 72 h at 27° C. Cells were harvested by centrifugation and lysed by 3 freeze/thaw cycles in PBS with 10% glycerol and protease inhibitor cocktail (Roche). After centrifugation AMPK a1b1g1 in the supernatant was captured by immobilized glutathione (GE Healthcare), impurities were washed away with PBS and AMPK alpha1beta1gamma1 was eluted with PBS containing 20 mM reduced gluthathione. The protein buffer was then exchanged to PBS with 10% glycerol and protein concentration was determined by UV absorbance.
# The white 384-well Optiplates (cat.no. 6007299) were purchased from PerkinElmer. The V9101 ADP-Glo Kinase Assay and ultra pure ATP (V915A) was purchased from Promega. The substrate for AMPK (NH2-HMRSAMSGLHLVKRR_CONH2) was purchased from Upstate (12-355).
# Compounds were tested in either serial dilutions or single dose concentrations. The serial compound dilutions were prepared in 100% DMSO automatically. The final DMSO concentration in the assay was 0.1%.
# The Compound Stock Solutions were 10 mM in 100% DMSO. The compounds were solubilised at room temperature.
# In the 384-well plates 1.25 ul of test compound in assay buffer was mixed with 1.25 ul of AMPK and 1.25 μl of the peptide (final concentration of 1 μM) and 1.25 μl of ATP (final concentration of 30 μM), both dissolved in assay buffer. This step was followed by an incubation time of 60 min. Then 5 μl of ADP Glo Reagent was added. This was followed by 40 min of incubation. Then 10 μl of Kinase Detection Reagent was admixed. The plates were sealed and after an incubation period of 30 min, the luminescence signal was measured in an Envision reader. All incubation steps were accomplished at room temperature.
# Each assay microtiter plate contained wells with vehicle controls instead of compound (0.1% DMSO in water) as reference for the low signal (100% CTL, low signal), and wells with serial dilutions of AMP (final 30 μM) as reference for high signals.
# The luminescence signal generated was proportional to the ADP concentration produced and was correlated with AMPK activity. The analysis of the data was performed by the calculation of the percentage of ATP consumption of AMPK in the presence of the test compound compared to the consumption of ATP in the presence of AMPK without compound. (RLU(sample)/RLU(low control))*100[RLU=relative luminescence units]
# An activator of the AMPK enzyme gave values above 100% CTL.
# EC50 values based on dose response curves are calculated with the XIFIT software using the 4 Parameter Logistic Model or Sigmoidal Dose-Response Model.
# T1 sequence (Q13131 whole entry): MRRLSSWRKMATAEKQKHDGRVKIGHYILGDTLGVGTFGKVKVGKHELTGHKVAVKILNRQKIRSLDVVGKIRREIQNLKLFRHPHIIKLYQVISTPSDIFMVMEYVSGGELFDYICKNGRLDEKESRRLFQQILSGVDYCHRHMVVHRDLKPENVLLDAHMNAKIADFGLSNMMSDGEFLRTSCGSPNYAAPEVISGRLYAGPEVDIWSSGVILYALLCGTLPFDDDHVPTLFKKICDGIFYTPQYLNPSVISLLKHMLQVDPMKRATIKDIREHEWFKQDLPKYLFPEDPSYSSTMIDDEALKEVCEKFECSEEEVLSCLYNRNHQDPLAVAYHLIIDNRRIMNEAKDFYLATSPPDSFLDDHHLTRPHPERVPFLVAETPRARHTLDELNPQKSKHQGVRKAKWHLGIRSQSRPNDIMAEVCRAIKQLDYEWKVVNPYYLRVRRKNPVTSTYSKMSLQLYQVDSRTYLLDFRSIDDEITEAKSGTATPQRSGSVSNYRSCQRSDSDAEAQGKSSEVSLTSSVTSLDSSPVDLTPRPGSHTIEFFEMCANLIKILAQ
# T1 sequence (Q9Y478 whole entry): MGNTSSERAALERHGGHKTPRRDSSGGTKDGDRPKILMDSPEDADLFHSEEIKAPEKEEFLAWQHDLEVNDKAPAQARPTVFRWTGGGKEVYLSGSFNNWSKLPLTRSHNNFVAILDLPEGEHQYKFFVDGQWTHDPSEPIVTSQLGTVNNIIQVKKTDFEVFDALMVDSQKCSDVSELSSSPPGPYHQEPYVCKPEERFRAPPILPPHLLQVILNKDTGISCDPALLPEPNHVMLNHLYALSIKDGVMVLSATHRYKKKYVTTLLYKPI
# T1 sequence (P54619 whole entry partner): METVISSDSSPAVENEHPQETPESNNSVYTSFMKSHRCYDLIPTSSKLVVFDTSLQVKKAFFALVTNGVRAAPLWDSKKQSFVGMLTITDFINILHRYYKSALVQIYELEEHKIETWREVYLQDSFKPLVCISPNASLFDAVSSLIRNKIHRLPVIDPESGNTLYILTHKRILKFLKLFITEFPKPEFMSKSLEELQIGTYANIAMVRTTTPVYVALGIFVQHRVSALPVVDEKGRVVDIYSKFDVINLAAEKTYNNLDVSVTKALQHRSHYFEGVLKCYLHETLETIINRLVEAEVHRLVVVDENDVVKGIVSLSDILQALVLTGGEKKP
SMILES,solubility at 24 h ([1]; pH 2.2 buffer) [µg/mL],solubility at 24 h ([1]; pH 4.5 buffer) [µg/mL],solubility at 24 h ([1]; pH 6.8 buffer) [µg/mL],EC50 [2] [nM]
"CS(C)(=O)=Nc1ccc(-c2ccc(-c3nc4[nH]c(O[C@@H]5CO[C@H]6[C@@H]5OC[C@H]6O)nc4cc3Cl)cc2)cn1 [Example 22, N-(5-(4-(6-Chloro-2-((3R,3aR,6R,6aR)-6-hydroxyhexahydrofuro[3,2-b]furan-3-yloxy)-3H-imidazo[4,5-b]pyridin-5-yl)phenyl)pyridin-2-yl)-S,S-dimethylsulfoximide]",< 80,> 7,< 1,45
CS(=N)(=O)c1ccc(-c2ccc(-c3nc4[nH]c(O[C@@H]5CO[C@H]6[C@@H]5OC[C@H]6O)nc4cc3Cl)cc2)nc1 (some centres unmarked) [Example 27],77,< 1,< 1,4
"CS(C)(=O)=NCC1CCN(c2ccc(-c3nc4[nH]c(O[C@@H]5CO[C@H]6[C@@H]5OC[C@H]6O)nc4cc3Cl)cc2)CC1 [Example 31, N-(1-(4-(6-Chloro-2-((3R,3aR,6R,6aR)-6-hydroxyhexahydrofuro[3,2-b]furan-3-yloxy)-3H-imidazo[4,5-b]pyridin-5-yl)phenyl)piperidin-4-ylmethyl)-S,S-dimethylsulfoximide]",> 122,105,89,17
"CS(=N)(=O)Cc1ccc(-c2ccc(-c3nc4[nH]c(O[C@@H]5CO[C@H]6[C@@H]5OC[C@H]6O)nc4cc3Cl)cc2)cc1 (stereo partly drawn) [Example 52, (3R,3aR,6R,6aR)-6-(6-Chloro-5-(4′-(S-methylsulfonimidoylmethyl)biphenyl-4-yl)-3H-imidazo[4,5-b]pyridin-2-yloxy)hexahydrofuro[3,2-b]furan-3-ol]",42,< 1,< 1,3
"CS(C)(=O)=Nc1cc(-c2ccc(-c3nc4[nH]c(O[C@@H]5CO[C@H]6[C@@H]5OC[C@H]6O)nc4cc3Cl)cc2)ccn1 [Example 36, N-(4-{4-[6-Chloro-2-((3R,3aR,6R,6aR)-6-hydroxyhexahydrofuro[3,2-b]furan-3-yloxy)-3H-imidazo[4,5-b]pyridin-5-yl]-phenyl}-pyridin-2-yl)-S,S-dimethylsulfoximide]",99,< 1,< 1,15
"CS(C)(=O)=NCc1ccc(-c2ccc(-c3nc4[nH]c(O[C@@H]5CO[C@H]6[C@@H]5OC[C@H]6O)nc4cc3Cl)cc2)cn1 [Example 51, N-(5-{4-[6-Chloro-2-((3R,3aR,6R,6aR)-6-hydroxyhexahydrofuro[3,2-b]furan-3-yloxy)-3H-imidazo[4,5-b]pyridin-5-yl]-phenyl}-pyridin-2-ylmethyl)-S,S-dimethylsulfoximide]",> 146,28,2,92
"CS(C)(=O)=Nc1ccc(-c2ccc(-c3nc4[nH]c(O[C@@H]5CO[C@H]6[C@@H]5OC[C@H]6O)nc4cc3Cl)cc2)nn1 [Example 50, N-(6-{4-[6-Chloro-2-((3R,3aR,6R,6aR)-6-hydroxyhexahydrofuro[3,2-b]furan-3-yloxy)-3H-imidazo[4,5-b]pyridin-5-yl]-phenyl}-pyridazin-3-yl)-S,S-dimethylsulfoximide]",> 128,> 117,88,304
"CS(C)(=O)=Nc1cnc(-c2ccc(-c3nc4[nH]c(O[C@@H]5CO[C@H]6[C@@H]5OC[C@H]6O)nc4cc3Cl)cc2)nc1 [Example 34, N-(2-{4-[6-Chloro-2-((3R,3aR,6R,6aR)-6-hydroxyhexahydrofuro[3,2-b]furan-3-yloxy)-3H-imidazo[4,5-b]pyridin-5-yl]-phenyl}-pyrimidin-5-yl)-S,S-dimethylsulfoximide]",4,5,13,3
"CS(=N)(=O)c1ccc(-c2ccc(-c3nc4[nH]c(O[C@@H]5CO[C@H]6[C@@H]5OC[C@H]6O)nc4cc3Cl)cc2)cc1 (stereo partly drawn) [Example 23, (3R,3aR,6R,6aR)-6-(6-Chloro-5-(4′-(S-methylsulfonimidoyl)biphenyl-4-yl)-3H-imidazo[4,5-b]pyridin-2-yloxy)hexahydrofuro[3,2-b]furan-3-ol]",69,2,1,10
"CS(C)(=O)=NCc1cccc(-c2ccc(-c3nc4[nH]c(O[C@@H]5CO[C@H]6[C@@H]5OC[C@H]6O)nc4cc3Cl)cc2)n1 [Example 35, N-(2-(4-(6-Chloro-2-((3R,3aR,6R,6aR)-6-hydroxyhexahydrofuro[3,2-b]furan-3-yloxy)-3H-imidazo[4,5-b]pyridin-5-yl)phenyl)pyridin-6-ylmethyl)-S,S-dimethylsulfoximide]",,,,87
"CN=S(C)(=O)c1ccc(-c2ccc(-c3nc4[nH]c(O[C@@H]5CO[C@H]6[C@@H]5OC[C@H]6O)nc4cc3Cl)cc2)nc1 (stereo partly drawn) [Example 28, (3R,3aR,6R,6aR)-6-(6-Chloro-5-(4-(5-(N,S-dimethylsulfonimidoyl)pyridin-2-yl)phenyl)-3H-imidazo[4,5-b]pyridin-2-yloxy)hexahydrofuro[3,2-b]furan-3-ol]",92,< 1,< 1,2
"CS(=O)(=NC#N)c1ccc(-c2ccc(-c3nc4[nH]c(O[C@@H]5CO[C@H]6[C@@H]5OC[C@H]6O)nc4cc3Cl)cc2)cc1 (stereo partly drawn) [Example 7, S-(4′-(6-Chloro-2-((3R,3aR,6R,6aR)-6-hydroxyhexahydrofuro[3,2-b]furan-3-yloxy)-3H-imidazo[4,5-b]pyridin-5-yl)biphenyl-4-yl)-S-methyl-N-cyano-sulfoximide]",15,< 1,< 1,1
"O=C(N=S1(=O)CCCCC1)c1ccc(-c2nc3[nH]c(O[C@@H]4CO[C@H]5[C@@H]4OC[C@H]5O)nc3cc2Cl)cc1 [Example 24, 4-[6-Chloro-2-((3R,3aR,6R,6aR)-6-hydroxy-hexahydro-furo[3,2-b]furan-3-yloxy)-3H-imidazo[4,5-b]pyridin-5-yl]-N-(1-oxo-hexahydro-1λ6-thiopyran-1-ylidene)-benzamide]",,,,215
CN=S1(=O)CCN(c2ccc(-c3nc4[nH]c(O[C@@H]5CO[C@H]6[C@@H]5OC[C@H]6O)nc4cc3Cl)cc2)CC1 [Example 5],,,,62

# Source: patent publication US9492436B2, “Azabenzimidazole derivatives” (Boehringer Ingelheim International GmbH, priority 2013, dated 2016)
